Source: PubChem BioAssay (NCI)
Where “and” joins values, the source holds several entries; their conditions need not be identical. Identical values can stand only once.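 Each compound was tested at five concentrations against cells in 96-well plates for 48 hours. The concentration for 50% growth inhibition is given as GI50. Definition used: TGI = concentration required for complete inhibition of growth.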

What was measured:
Assay in all cases: growth of human tumour cells (NCI), 48 h
[1] = tested on: SK-MEL-28 melanoma
[2] = tested on: SK-MEL-2 melanoma
[3] = tested on: OVCAR-5 ovarian
[4] = tested on: K-562 leukemia
[5] = tested on: HCC-2998 colon
[6] = tested on: MCF7 breast
[7] = tested on: UO-31 renal
[8] = tested on: RXF 393 renal
[9] = tested on: HL-60(TB) leukemia
[10] = tested on: NCI-H522 lung

Structure (SMILES)	GI50 [1]	TGI [1]	GI50 [2]	TGI [2]	GI50 [3]	TGI [3]	GI50 [4]	TGI [4]	GI50 [5]	TGI [5]	TGI [6]	GI50 [7]	TGI [7]	GI50 [8]	TGI [8]	GI50 [9]	TGI [9]	GI50 [10]	TGI [10]	GI50 [6]
COc1cc(O)c2c(c1)C(=O)c1cc3c(c(O)c1C2=O)C(OC1OC(C)C(O)C(O)C1OC)C(OC)C(C)(O)C3=O (centres undefined)	2240 nM and 1740 nM	5.97 µM and 5.4 µM	2490 nM	6.52 µM and 9.1 µM	2180 nM	8.48 µM and 9.24 µM	2240 nM and 12200 nM	> 100 µM and 72.5 µM	2220 nM	5.14 µM and 12.4 µM	6.76 µM and 6.4 µM	1870 nM	12.2 µM and 7.13 µM	1010 nM	6.72 µM and 4.38 µM	3.44 µM and 6.26 µM	17.6 µM and 24.3 µM	2180 nM	6.7 µM and 9.45 µM	
O=C(NCc1ccco1)c1ccc(NC2=C(Cl)C(=O)N(Cc3ccccc3)C2=O)cc1	19900 nM	43.4 µM	23800 nM	55.8 µM	19700 nM	44.9 µM	21200 nM	49.7 µM	22900 nM	37.4 µM	23.8 µM	22200 nM	57.7 µM	40100 nM	> 100 µM	17.4 µM	33.8 µM	19500 nM	57.9 µM	3910 nM
C/C(=C(\c1ccc(OCCN2CCCCCC2)cc1)c1ccc(OC(=O)Cc2ccccc2)cc1)c1ccc(Cl)cc1	2520 nM	5.03 µM	3980 nM	8.72 µM	2770 nM	6.45 µM	770 nM	12.1 µM	2720 nM	5.57 µM	3.83 µM	2080 nM	4.21 µM	2030 nM	4.45 µM	3.5 µM	8.17 µM	3600 nM	6.87 µM	382 nM
CCOC(=O)C(C)(C)C(O)C(C)C (centres undefined)		> 100 µM		> 100 µM		> 100 µM		> 100 µM		> 100 µM	> 100 µM		> 100 µM		> 100 µM		> 100 µM		> 100 µM	
CCN(CC)CCNc1cc(-c2cccc(OC(F)(F)F)c2)nc2ccc(N3CCCC3)cc12	1660 nM and 1900 nM and 1740 nM	3.16 µM and 3.38 µM and 3.17 µM	1610 nM and 1870 nM and 1900 nM	3.3 µM and 3.49 µM and 3.61 µM	1940 nM and 2240 nM	3.93 µM and 3.83 µM and 6.12 µM	1360 nM and 1800 nM and 2180 nM	6.14 µM and 5.09 µM and 5.01 µM	1340 nM and 1280 nM and 1900 nM	2.72 µM and 2.6 µM and 4.06 µM	3.44 µM and 2.9 µM and 3.62 µM	1230 nM and 1350 nM and 1460 nM	2.5 µM and 2.69 µM and 2.99 µM	1510 nM and 1500 nM and 1700 nM	3.03 µM and 3.09 µM and 4.02 µM	1.66 µM and 0.714 µM and 2 µM	3.65 µM and 3.01 µM and 4.12 µM	1880 nM and 1640 nM and 1920 nM	3.63 µM and 3.24 µM and 4 µM	1640 nM and 1450 nM and 1760 nM
